Reference: article PMC13600255 (Journal of the American Chemical Society, 2025)
Several values for one entry are separate records, joined by “and”; a condition that tells them apart may be missing. Equal values may be shown once. Entries after “also recorded” stand apart in the source; their conditions may differ. Read-outs that look alike come from different tables or passages of the source.

Key:
hVMAT2 [1] = molecular target: T1, hVMAT2 (Homo sapiens, UniProt Q05940); experiment: FFN206 fluorescent substrate uptake inhibition in hVMAT2-HEK cells; format: cell-based
hDAT = hDAT (Homo sapiens, UniProt Q01959); experiment: APP+ fluorescent substrate uptake inhibition in hDAT-HEK cells; format: cell-based; conditions: read-out: IC50, hDAT
hOCT2 = molecular target: T2, hOCT2 (Homo sapiens, UniProt O15244); experiment: ASP+ fluorescent substrate uptake inhibition at OCT2; format: cell-based; conditions: read-out: IC50, hOCT2; ASP+ fluorescent substrate
T2 sequence (O15244 1-555): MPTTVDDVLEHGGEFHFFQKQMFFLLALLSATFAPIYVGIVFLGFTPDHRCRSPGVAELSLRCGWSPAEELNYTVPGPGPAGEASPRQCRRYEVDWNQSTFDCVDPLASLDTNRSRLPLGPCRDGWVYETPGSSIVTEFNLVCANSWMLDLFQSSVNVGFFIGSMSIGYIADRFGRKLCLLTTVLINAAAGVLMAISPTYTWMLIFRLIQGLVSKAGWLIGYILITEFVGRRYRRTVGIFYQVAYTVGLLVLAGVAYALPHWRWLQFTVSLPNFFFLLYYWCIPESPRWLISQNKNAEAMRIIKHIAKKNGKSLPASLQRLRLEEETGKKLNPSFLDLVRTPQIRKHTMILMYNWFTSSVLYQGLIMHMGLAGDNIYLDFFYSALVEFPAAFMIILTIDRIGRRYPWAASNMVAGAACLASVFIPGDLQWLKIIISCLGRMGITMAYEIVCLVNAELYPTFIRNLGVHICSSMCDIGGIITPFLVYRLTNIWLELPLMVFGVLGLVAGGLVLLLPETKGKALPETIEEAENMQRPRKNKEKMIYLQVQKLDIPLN

[2] = tested on: other uptake 2 transporters (OCT1, OCT3, PMAT); experiment: Fluorescent substrate uptake inhibition at the other uptake 2 transporters; format: cell-based
rat SERT (rSERT) [3] = molecular target: T3, rat SERT (rSERT) (Rattus norvegicus, UniProt P31652); experiment: [3H]5-HT uptake inhibition in rat brain synaptosomes; format: biochemical; conditions: rat brain synaptosomes
rat VMAT2 (rVMAT2) = rat VMAT2 (rVMAT2) (Rattus norvegicus, UniProt Q01827); experiment: [3H]5-HT uptake inhibition in rat brain synaptic vesicular fraction; format: biochemical; conditions: read-out: Uptake Inhibition at VMAT2 IC50, [3H]5-HT (rVMAT2); rat brain synaptic vesicles
SERT [4] = molecular target: SERT (Rattus norvegicus, UniProt P31652); experiment: [3H]5-HT release from rat brain synaptosomes via SERT; format: biochemical; conditions: rat brain synaptosomes; for [3H]5-HT Release % Emax via SERT / [3H]5-HT Release EC50 ± SD via SERT: n = 3; for [3H]5-HT Release EC50 ± SD via SERT: active releaser: EC50 < 10 μM and Emax > 30%
VMAT2 = VMAT2 (Rattus norvegicus, UniProt Q01827); experiment: [3H]5-HT release from rat brain synaptic vesicles via VMAT2; format: biochemical; conditions: for [3H]5-HT Release % Emax via VMAT2: rat brain vesicular fraction, 5-HT control set as Emax = 100%
rVMAT2 = rVMAT2 (Rattus norvegicus, UniProt Q01827); experiment: [3H]DTBZ binding competition in rat brain synaptic vesicles
SERT [5] = molecular target: SERT (Mus musculus, UniProt Q60857); experiment: SERTlight two-photon imaging of SERT function in acute mouse brain slices; format: cell-based; conditions: for Effect on SERTlight labeling of 5-HT axons: 2 μM for 30 minutes, SERTlight 10 μM, SNpr, DS, SSp2/3
mouse VMAT2 (mVMAT2) = mouse VMAT2 (mVMAT2) (Mus musculus, UniProt Q8BRU6); experiment: FFN200 two-photon imaging of VMAT2 function in acute mouse brain slices; format: cell-based; conditions: for Effect on FFN200 uptake / punctate labeling: 2 μM for 30 minutes, FFN200 10 μM, dorsal striatum
mice [6] = experiment: Catalepsy bar test in mice; format: in vivo, mouse; conditions: mice, s.c.
mice [7] = experiment: Open field locomotor activity test in mice; format: in vivo, mouse; conditions: s.c.
mice [8] = experiment: Loss of righting reflex; format: in vivo, mouse; conditions: high doses
[9] = Pharmacokinetics in mice, estimated free drug concentration in brain; format: in vivo, mouse
Lipophilicity = format: physicochemical; conditions: noribogaine versus ibogamine
rat SERT (rSERT) [10] = molecular target: T3, rat SERT (rSERT); conditions: cited from earlier work
hVMAT2 [11] = molecular target: T1, hVMAT2; conditions: read-out: IC50, VMAT2 binding, cortex; human brain cortex; cited from earlier work
humans [12] = conditions: top dose of 180 mg, p.o.; cited from earlier work
SERT [13] = conditions: SERT-transfected cells; cited from earlier work
MAO A = molecular target: T4, MAO A (Homo sapiens, UniProt P21397); experiment: MAO A activity; format: biochemical; conditions: Figure S16
T4 sequence (P21397 1-527): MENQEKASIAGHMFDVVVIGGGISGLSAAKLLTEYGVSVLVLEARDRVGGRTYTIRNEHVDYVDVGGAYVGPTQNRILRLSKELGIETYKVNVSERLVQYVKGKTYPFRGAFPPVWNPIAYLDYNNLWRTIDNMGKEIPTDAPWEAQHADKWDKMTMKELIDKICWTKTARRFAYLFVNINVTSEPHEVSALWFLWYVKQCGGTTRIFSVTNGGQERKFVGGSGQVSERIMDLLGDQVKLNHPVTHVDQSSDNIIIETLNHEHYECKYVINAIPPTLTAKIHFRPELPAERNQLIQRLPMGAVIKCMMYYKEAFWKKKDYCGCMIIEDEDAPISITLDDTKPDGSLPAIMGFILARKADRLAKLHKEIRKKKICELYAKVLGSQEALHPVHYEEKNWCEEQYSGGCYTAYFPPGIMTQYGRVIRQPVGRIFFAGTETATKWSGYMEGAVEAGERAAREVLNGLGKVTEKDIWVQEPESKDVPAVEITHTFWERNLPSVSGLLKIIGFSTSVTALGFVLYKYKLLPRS

humans [14] = conditions: after a single treatment; cited from earlier work

T1 sequence (Q05940 whole entry): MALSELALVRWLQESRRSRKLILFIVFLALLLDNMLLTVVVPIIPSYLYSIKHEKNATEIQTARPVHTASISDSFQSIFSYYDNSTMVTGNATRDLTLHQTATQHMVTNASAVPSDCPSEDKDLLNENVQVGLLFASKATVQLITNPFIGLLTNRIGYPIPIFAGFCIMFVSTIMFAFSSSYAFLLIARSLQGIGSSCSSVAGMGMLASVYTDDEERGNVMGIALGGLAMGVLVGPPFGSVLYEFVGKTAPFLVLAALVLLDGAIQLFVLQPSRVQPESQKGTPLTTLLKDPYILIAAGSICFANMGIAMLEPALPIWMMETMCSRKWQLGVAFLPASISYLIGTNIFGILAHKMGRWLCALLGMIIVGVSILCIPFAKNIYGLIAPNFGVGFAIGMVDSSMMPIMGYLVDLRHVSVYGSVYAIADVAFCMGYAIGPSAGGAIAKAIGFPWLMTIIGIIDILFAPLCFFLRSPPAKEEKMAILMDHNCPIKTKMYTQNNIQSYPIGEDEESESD
Chain of SERT (Mus musculus, UniProt Q60857) (Q60857 whole entry): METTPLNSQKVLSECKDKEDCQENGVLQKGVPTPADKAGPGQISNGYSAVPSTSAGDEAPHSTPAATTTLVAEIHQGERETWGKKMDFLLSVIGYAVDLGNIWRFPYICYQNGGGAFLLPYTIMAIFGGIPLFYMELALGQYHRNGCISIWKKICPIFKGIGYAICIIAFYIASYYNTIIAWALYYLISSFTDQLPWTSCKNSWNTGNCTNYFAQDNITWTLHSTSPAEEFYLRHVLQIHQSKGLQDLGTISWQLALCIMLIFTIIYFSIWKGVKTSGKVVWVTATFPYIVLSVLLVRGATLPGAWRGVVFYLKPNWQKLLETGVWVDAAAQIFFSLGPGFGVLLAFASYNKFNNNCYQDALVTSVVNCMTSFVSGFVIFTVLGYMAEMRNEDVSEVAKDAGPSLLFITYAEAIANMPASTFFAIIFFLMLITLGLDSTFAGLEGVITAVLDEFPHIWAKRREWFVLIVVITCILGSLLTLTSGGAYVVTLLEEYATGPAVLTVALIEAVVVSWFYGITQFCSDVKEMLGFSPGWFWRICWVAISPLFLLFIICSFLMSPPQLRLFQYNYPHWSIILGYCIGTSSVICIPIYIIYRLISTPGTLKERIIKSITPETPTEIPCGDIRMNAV
Chain of VMAT2 (Q01827 whole entry): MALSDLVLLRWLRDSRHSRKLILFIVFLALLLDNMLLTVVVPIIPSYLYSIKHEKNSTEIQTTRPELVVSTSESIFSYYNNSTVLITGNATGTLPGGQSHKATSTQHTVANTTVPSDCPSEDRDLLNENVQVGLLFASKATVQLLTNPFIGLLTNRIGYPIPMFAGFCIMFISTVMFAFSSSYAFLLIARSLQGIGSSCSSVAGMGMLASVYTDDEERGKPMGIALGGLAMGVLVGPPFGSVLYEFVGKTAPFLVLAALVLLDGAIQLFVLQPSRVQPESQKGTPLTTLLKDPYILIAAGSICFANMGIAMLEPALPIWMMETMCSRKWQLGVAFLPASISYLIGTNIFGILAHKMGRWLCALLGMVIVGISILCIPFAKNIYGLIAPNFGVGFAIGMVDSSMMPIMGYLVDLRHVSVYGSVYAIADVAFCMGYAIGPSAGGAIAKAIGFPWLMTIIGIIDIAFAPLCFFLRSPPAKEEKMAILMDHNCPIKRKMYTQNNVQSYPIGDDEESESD
Chain of mouse VMAT2 (mVMAT2) (Q8BRU6 whole entry): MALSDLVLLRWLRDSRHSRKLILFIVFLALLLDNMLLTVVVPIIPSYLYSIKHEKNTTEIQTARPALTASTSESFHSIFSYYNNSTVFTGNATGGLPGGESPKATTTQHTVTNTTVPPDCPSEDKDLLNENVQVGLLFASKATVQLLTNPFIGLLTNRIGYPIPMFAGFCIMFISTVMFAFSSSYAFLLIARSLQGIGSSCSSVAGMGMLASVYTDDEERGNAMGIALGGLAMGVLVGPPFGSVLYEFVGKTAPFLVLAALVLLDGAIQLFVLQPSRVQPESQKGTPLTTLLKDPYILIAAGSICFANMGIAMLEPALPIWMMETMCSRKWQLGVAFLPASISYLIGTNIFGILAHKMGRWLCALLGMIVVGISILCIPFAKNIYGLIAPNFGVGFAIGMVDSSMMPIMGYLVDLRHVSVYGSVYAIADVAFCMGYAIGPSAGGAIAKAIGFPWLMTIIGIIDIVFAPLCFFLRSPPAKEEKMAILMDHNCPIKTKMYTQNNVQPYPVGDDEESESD
T3 sequence (P31652 whole entry): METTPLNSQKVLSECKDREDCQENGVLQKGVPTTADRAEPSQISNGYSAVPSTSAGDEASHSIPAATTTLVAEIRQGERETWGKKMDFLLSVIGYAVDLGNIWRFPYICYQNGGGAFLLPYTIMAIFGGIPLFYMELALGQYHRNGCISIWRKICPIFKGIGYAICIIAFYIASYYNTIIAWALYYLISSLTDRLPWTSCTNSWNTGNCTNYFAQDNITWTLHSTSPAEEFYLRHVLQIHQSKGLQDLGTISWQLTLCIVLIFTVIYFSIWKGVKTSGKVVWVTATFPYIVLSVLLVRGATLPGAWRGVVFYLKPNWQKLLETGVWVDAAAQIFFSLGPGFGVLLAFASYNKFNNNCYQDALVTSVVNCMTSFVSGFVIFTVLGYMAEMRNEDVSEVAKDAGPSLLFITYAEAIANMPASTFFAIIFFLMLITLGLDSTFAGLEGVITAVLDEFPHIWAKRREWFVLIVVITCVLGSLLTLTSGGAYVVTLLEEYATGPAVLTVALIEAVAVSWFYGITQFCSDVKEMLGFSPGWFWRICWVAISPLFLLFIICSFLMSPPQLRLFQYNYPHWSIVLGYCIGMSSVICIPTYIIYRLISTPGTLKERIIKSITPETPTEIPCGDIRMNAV
Chain of SERT (Rattus norvegicus, UniProt P31652) (P31652 whole entry): as above
Chain of rVMAT2 (Q01827 whole entry): as the sequence (Q01827 whole entry) above
Chain of hDAT (Q01959 whole entry): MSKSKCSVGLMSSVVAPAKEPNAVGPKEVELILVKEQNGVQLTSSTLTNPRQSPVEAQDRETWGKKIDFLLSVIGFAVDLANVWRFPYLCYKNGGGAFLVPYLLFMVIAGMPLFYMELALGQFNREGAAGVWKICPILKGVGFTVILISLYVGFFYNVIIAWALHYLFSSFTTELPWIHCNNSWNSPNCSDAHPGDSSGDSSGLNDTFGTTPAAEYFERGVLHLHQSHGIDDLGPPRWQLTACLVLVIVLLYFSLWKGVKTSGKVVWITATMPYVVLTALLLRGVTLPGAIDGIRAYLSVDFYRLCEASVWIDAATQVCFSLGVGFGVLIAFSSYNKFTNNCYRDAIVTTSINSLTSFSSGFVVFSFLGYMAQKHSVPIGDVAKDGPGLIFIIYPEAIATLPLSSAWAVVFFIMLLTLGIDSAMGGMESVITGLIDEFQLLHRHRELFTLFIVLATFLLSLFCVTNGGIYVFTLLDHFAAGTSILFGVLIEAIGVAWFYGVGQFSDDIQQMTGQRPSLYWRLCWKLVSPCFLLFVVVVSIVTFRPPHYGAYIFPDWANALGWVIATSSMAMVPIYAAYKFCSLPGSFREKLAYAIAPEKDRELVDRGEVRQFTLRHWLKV
Chain of rat VMAT2 (rVMAT2) (Q01827 whole entry): as the sequence (Q01827 whole entry) above

CC[C@H]1C[C@H]2C[C@H]3c4[nH]c5ccc(O)cc5c4CCN(C2)[C@@H]13 [noribogaine]
IC50 (hVMAT2 [1]; read-out: IC50, hVMAT2 (uptake inhibition, FFN206), hVMAT2-HEK cells, fluorescent substrate FFN206, n = 4): 570 nM
IC50 (hDAT): 6760 nM
IC50 (hOCT2): 6180 nM
Inhibition at the other uptake 2 transporters examined [2]: no inhibition below 10 μM
IC50 (rat SERT (rSERT) [3]; read-out: Uptake Inhibition at SERT IC50, [3H]5-HT (rSERT)): 326 nM
IC50 (rat SERT (rSERT) [3]; read-out: [3H]5-HT Uptake Inhibition IC50 ± SD, SERT, n = 3): 326 ± 47.6 nM
IC50 (rat VMAT2 (rVMAT2)): 1310 nM
[3H]5-HT release from preloaded synaptosomes (qualitative) (SERT [4]): No [^3H]5-HT release was observed
[3H]5-HT Release % Emax via SERT (SERT [4]): < 30%
[3H]5-HT Release EC50 ± SD via SERT (SERT [4]): inactive
[3H]5-HT Release % Emax via VMAT2 (VMAT2): 50%
EC50 (VMAT2; read-out: [3H]5-HT Release EC50 ± SD via VMAT2): 6480 nM
[3H]DTBZ displacement (rVMAT2): < 20%
IC50 (rVMAT2; read-out: IC50, rVMAT2 ([3H]DTBZ competition)): > 10000 nM
Effect on somatodendritic SERTlight labeling in dorsal raphe (SERT [5]; 2 μM): showed no effect
Effect on SERTlight labeling of 5-HT axons (SERT [5]): ablated SERTlight probe uptake; also recorded: completely blocked the SERTlight signal; also recorded: completely inhibited the axonal SERT
Effect on somatodendritic SERTlight labeling in dorsal raphe (SERT [5]; 10 μM): showed no effect
Effect on somatodendritic SERTlight labeling in dorsal raphe (SERT [5]; 30 μM): no apparent effect
Effect on somatodendritic SERTlight labeling in dorsal raphe (SERT [5]; 100 μM): clear inhibition
Inhibitory potency on SERTlight staining in dorsal raphe, dose-response (SERT [5]; 10, 30, 50, and 100 μM): weak inhibitory potency
Effect on FFN200 uptake / punctate labeling (mouse VMAT2 (mVMAT2)): strong inhibitory effects; also recorded: completely inhibited FFN200 uptake
IC50 (mouse VMAT2 (mVMAT2); read-out: IC50 FFN200 uptake in acute mouse slices, number of puncta per image, dose-response): 160 nM
Catalepsy in bar test (mice [6]; high doses 30, 50 and 80 mg/kg): did not induce catalepsy; also recorded: did not show any catalepsy
Catalepsy in bar test (mice [6]; dose-response): does not result in catalepsy
Locomotion in open field test (mice [7]; 30 mg/kg): strongly suppressed
Locomotor activity / sedation in open field test (mice [7]; dose-response): diminished ambulatory behavior
Loss of righting reflex (LORR) (mice [8]): did not observe a loss of righting reflex
Cmax, estimated free brain concentration ([9]; mice, 10 mg/kg, s.c.): ~ 6.6 μM
Cmax, estimated free drug in the brain ([9]; mice, 50 mg/kg, s.c.): 31 µM and > 20 µM
Concentration of free drug in the brain over plasma ([9]; rodents (rats ref 11 and mice, Figure S11)): > 4 fold
Less lipophilic than ibogamine by (Lipophilicity): 1.75 log D units
IC50 (rat SERT (rSERT) [10]; read-out: IC50, rSERT reported previously in rat synaptosomes): 330 nM
IC50 (hVMAT2 [11]): 5000 nM
Dose-limiting cardiac effect (humans [12]): cardiac QT interval prolongation
Partial [3H]5-HT release Emax (SERT [13]): ~ 30%

ibogaine
Selectivity hVMAT2 over hSERT (hVMAT2 [1]; ratio of IC50 values, cell-based fluorometry): seven-fold more potent at VMAT2
Inhibition at the other uptake 2 transporters examined [2]: no inhibition below 10 μM
[3H]5-HT release from preloaded synaptosomes (qualitative) (SERT [4]): No [^3H]5-HT release was observed
[3H]5-HT Release % Emax via SERT (SERT [4]): < 30%
[3H]5-HT Release EC50 ± SD via SERT (SERT [4]): inactive
Concentration at which [3H]5-HT release exceeds Emax of 30% (VMAT2; rat brain synaptic vesicles): > 10 µM
[3H]5-HT Release % Emax via VMAT2 (VMAT2): < 30%
Effect on SERTlight labeling of 5-HT axons (SERT [5]): did not alter probe uptake; also recorded: had no effect on SERTlight labeling
Effect on FFN200 uptake / punctate labeling (mouse VMAT2 (mVMAT2)): strong inhibitory effects; also recorded: completely inhibited FFN200 uptake
Activity at MAO A (MAO A): no activity
Ratio of binding to uptake inhibitory constants at SERT (rat SERT (rSERT) [10]): ~ 1
Remission (humans [14]): 80%
